Experimental data from PubChem BioAssay (NCI).
Where “and” joins values, the source holds several entries; their conditions need not be identical. Identical values can stand only once.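 Where inhibition never reached the appropriate level, the endpoint shown equals the highest concentration tested. Otherwise, values were interpolated linearly from a five-concentration, 48-hour dose response in 96-well plates. GI50 is the concentration that inhibits growth by half. TGI denotes the concentration required for complete inhibition of growth.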

Assays:
Experiment in all cases: NCI tumour cell line growth inhibition, 48 h
[1] = tested on: DMS 273 small cell lung
[2] = tested on: SNB-78 CNS
[3] = tested on: DLD-1 colon
[4] = tested on: RXF-631 renal
[5] = tested on: LXFL 529 NSCLC
[6] = tested on: DMS 114 small cell lung
[7] = tested on: XF 498 CNS
[8] = tested on: HOP-18 NSCLC
[9] = tested on: M19-MEL melanoma
[10] = tested on: P388 leukemia
[11] = tested on: SN12K1 renal
[12] = tested on: P388/ADR leukemia

Q: What does the source list for `CCCCCCN(CCCCCC)C(=S)N/N=C(\C)c1ccccn1`?
A: TGI [1]: 3.92 µM; TGI [2]: 2.34 µM; TGI [3]: 2.93 µM; TGI [4]: 3.67 µM; TGI [5]: 1.45 µM; TGI [6]: 2.29 µM

Q: Which TGI [7] does the source give for `CN(C)c1nc(Oc2nc(N(C)C)nc(N(C)C)n2)nc(N(C)C)n1` here?
A: The TGI was > 100 µM.

Q: What about the TGI [8] of the same molecule?
A: Its TGI is > 100 µM.

Q: And the TGI [1]?
A: The TGI was > 100 µM.

Q: What about the TGI [9] of the same molecule?
A: Its TGI is > 100 µM.

Q: And the TGI [2]?
A: The TGI was > 100 µM.

Q: And the TGI [3]?
A: The TGI was > 100 µM.

Q: What about the TGI [5] of the same molecule?
A: Its TGI is > 100 µM.

Q: What about the TGI [6] of the same molecule?
A: Its TGI is > 100 µM.

Q: How did the TGI [8] turn out when `CCCCCCCC(=O)OCC(COC(=O)C(C)(C)C)OC(=O)Cc1ccccc1` (stereo not given) was run?
A: The TGI was > 100 µM.

Q: And the TGI [1]?
A: Its TGI is > 100 µM.

Q: And the TGI [9]?
A: The TGI was > 100 µM.

Q: What about the TGI [3] of the same molecule?
A: The TGI was > 100 µM.

Q: What about the TGI [5] of the same molecule?
A: The TGI was > 100 µM.

Q: And the TGI [6]?
A: The TGI was > 100 µM.

Q: How did the TGI [8] turn out when `O=[N+]([O-])c1ccc(C[P+]2(c3ccccc3)CCCCC2)cc1` was run?
A: The TGI was > 100 µM.

Q: What about the TGI [1] of the same molecule?
A: The TGI was > 100 µM.

Q: And the TGI [3]?
A: Its TGI is > 100 µM.

Q: What about the TGI [5] of the same molecule?
A: The TGI was > 100 µM.

Q: What about the TGI [6] of the same molecule?
A: The TGI was > 100 µM.

Q: What does the source list for `C[C@]12CCC3[C@@H](CCC45OC4C(=O)CC[C@]35C)C1Cc1cnn(-c3ccc(F)cc3)c1N2` (stereo not given in full)?
A: TGI [7]: > 100 µM; TGI [8]: > 100 µM; TGI [1]: 38.9 µM; TGI [9]: > 100 µM; TGI [2]: 79 µM; TGI [5]: > 100 µM; TGI [6]: 50.5 µM

Q: Which results are given for `COc1cc(C)c(CC/C(C)=C/Cc2cc(O)ccc2O)c(C)c1C`?
A: TGI [7]: > 25 µM; TGI [8]: > 25 µM; TGI [1]: > 25 µM; TGI [9]: > 25 µM; TGI [3]: > 25 µM; TGI [5]: > 25 µM; TGI [6]: > 25 µM

Q: What does the source list for `Cc1c2ccnc(C(N)=O)c2c(C)c2c1[nH]c1ccccc12`?
A: TGI [7]: 19.8 µM and 26.4 µM; GI50 [8]: 15 µM; TGI [8]: 46.5 µM and 47.3 µM; GI50 [1]: 3.5 µM; TGI [1]: 23.7 µM and 16.7 µM; GI50 [9]: 4.7 µM; TGI [9]: 25.2 µM and 17.4 µM; GI50 [2]: 6.28 µM; TGI [2]: 48.3 µM and > 100 µM; GI50 [3]: 3.57 µM; TGI [3]: 45 µM and 23.6 µM; TGI [10]: 14 µM; TGI [11]: 19.1 µM; TGI [4]: 28.8 µM; TGI [5]: 26.9 µM; GI50 [6]: 6.72 µM; TGI [6]: 47.3 µM and 47.6 µM; TGI [12]: 35.8 µM

Q: Which TGI [7] does the source give for `CSCC[C@@H](NC(=O)[C@H](CC(C)C)NC(=O)C(Cc1cnc[nH]1)NC(=O)CNC(=O)[C@@H](NC(=O)[C@H](C)NC(=O)[C@H](Cc1c[nH]c2ccccc12)NC(=O)[C@H](CCC(N)=O)NC(=O)[C@@H](N)CC(N)=O)C(C)C)C(N)=O` (stereo not given in full) here?
A: Its TGI is > 100 µM.

Q: And the TGI [8]?
A: Its TGI is > 100 µM.

Q: What about the TGI [1] of the same molecule?
A: The TGI was > 100 µM.

Q: And the TGI [9]?
A: The TGI was > 100 µM.

Q: And the TGI [2]?
A: The TGI was > 100 µM.

Q: And the TGI [3]?
A: The TGI was > 100 µM.

Q: And the TGI [10]?
A: Its TGI is > 100 µM.

Q: What about the TGI [11] of the same molecule?
A: The TGI was > 100 µM.

Q: And the TGI [6]?
A: The TGI was > 100 µM.

Q: What about the TGI [12] of the same molecule?
A: The TGI was > 100 µM.

Q: How did the TGI [1] turn out when `COC(=O)CC(=O)OSc1ccccc1` was run?
A: Its TGI is 41 µM.

Q: What about the TGI [3] of the same molecule?
A: Its TGI is 48 µM.

Q: What about the TGI [4] of the same molecule?
A: The TGI was 25 µM.

Q: What about the TGI [6] of the same molecule?
A: The TGI was 25.6 µM.

Q: Which results are given for `Cc1c(N2CCOCC2)nc2ccc(Cl)cc2c1-c1ccccc1`?
A: TGI [1]: > 100 µM; TGI [9]: > 100 µM; TGI [2]: > 100 µM; TGI [5]: > 100 µM; TGI [6]: > 100 µM

Q: Which TGI [7] does the source give for `Cc1cc([N+](=O)[O-])c(C)c2c1[nH]c1ccc(Cl)cc12` here?
A: The TGI was > 100 µM.

Q: What about the TGI [8] of the same molecule?
A: Its TGI is > 100 µM.

Q: What about the TGI [1] of the same molecule?
A: Its TGI is > 100 µM.

Q: What about the TGI [9] of the same molecule?
A: Its TGI is > 100 µM.

Q: And the TGI [2]?
A: Its TGI is > 100 µM.

Q: And the TGI [6]?
A: The TGI was > 100 µM.

Q: Which results are given for `COc1ccc(CNc2cnc3ccc(N)cc3n2)cc1`?
A: TGI [7]: > 100 µM; TGI [8]: > 100 µM; TGI [1]: > 100 µM; TGI [9]: > 100 µM; TGI [2]: > 100 µM; TGI [3]: > 100 µM; TGI [6]: > 100 µM

Q: Which TGI [7] does the source give for `COc1cc2ccc3c4cc(OC)c(OC)cc4c[n+](C)c3c2cc1O` here?
A: Its TGI is > 88.1 µM.

Q: And the TGI [8]?
A: Its TGI is > 100 µM.

Q: What about the TGI [1] of the same molecule?
A: Its TGI is > 100 µM.

Q: And the TGI [9]?
A: The TGI was > 100 µM.

Q: What about the TGI [2] of the same molecule?
A: The TGI was > 100 µM.

Q: And the TGI [3]?
A: The TGI was > 100 µM.

Q: What about the TGI [5] of the same molecule?
A: Its TGI is > 100 µM.

Q: And the TGI [6]?
A: The TGI was > 82.9 µM.

Q: How did the TGI [7] turn out when `CN(C)CCNC(=O)c1cccc2c1Nc1ccccc1S2` was run?
A: The TGI was 25.3 µM.

Q: And the TGI [8]?
A: The TGI was 24.4 µM.

Q: And the TGI [1]?
A: Its TGI is 29.3 µM.

Q: And the TGI [9]?
A: The TGI was 29.6 µM.

Q: And the TGI [2]?
A: Its TGI is 27.7 µM.

Q: And the TGI [3]?
A: The TGI was 29.7 µM.

Q: What about the TGI [10] of the same molecule?
A: Its TGI is 6.23 µM.

Q: What about the TGI [11] of the same molecule?
A: The TGI was 20.7 µM.

Q: What about the TGI [6] of the same molecule?
A: Its TGI is 20 µM.

Q: What about the TGI [12] of the same molecule?
A: Its TGI is 9.51 µM.

Q: With `CC(=O)NNc1nc(C)c(C(=O)NNC(=O)C(=O)Nc2ccc([N+](=O)[O-])cc2[N+](=O)[O-])s1` as the molecule, how does the TGI [7] read?
A: Its TGI is > 100 µM.

Q: And the TGI [1]?
A: The TGI was > 100 µM.

Q: What about the TGI [2] of the same molecule?
A: Its TGI is > 100 µM.

Q: And the TGI [3]?
A: The TGI was > 100 µM.

Q: And the TGI [4]?
A: Its TGI is > 100 µM.

Q: And the TGI [5]?
A: The TGI was > 100 µM.

Q: And the TGI [6]?
A: The TGI was > 100 µM.

Q: Which TGI [7] does the source give for `CCOC(=O)C1C(c2ccc(Cl)cc2Cl)NC(c2ccc(C)cc2)C(C(=O)OC)S1(=O)=O` (stereo not given) here?
A: The TGI was > 100 µM.

Q: And the TGI [1]?
A: Its TGI is > 100 µM.

Q: What about the TGI [9] of the same molecule?
A: Its TGI is > 100 µM.

Q: And the TGI [2]?
A: The TGI was > 100 µM.

Q: What about the TGI [3] of the same molecule?
A: The TGI was > 100 µM.

Q: What about the TGI [5] of the same molecule?
A: The TGI was > 100 µM.
